Assay results from patent US11123408B2, “Compositions and methods for treating nonsteroidal anti-inflammatory drug (NSAID) associated coagulopathy, thrombocytopenia, glanzmann's thrombasthenia, and/or thrombosis” (YALE UNIVERSITY, priority 2011, dated 2021).
“Also recorded” adds a separate entry of the source. Each block holds one molecule with its values, some of them ahead of it.

Experiments:
[1] = tested on: platelets in platelet rich plasma; assay: Lumi aggregometry (extracellular ATP, dense granule release) simultaneously with LTA; assay type: cell-based, human
Description: (§1) Whole blood from healthy voluntary donors was collected in accordance with an IRB-approved protocol into blue top vacutainer tubes containing 3.2% sodium citrate. Blood was centrifuged at 1000 RPM for 10 minutes at room temperature to collect platelet rich plasma (PRP). PRP in the supernatant was then transferred to fresh tubes, and the remainder of the specimen was centrifuged at 4000 RPM for 10 minutes to obtain platelet poor plasma (PPP). PRP was adjusted to a final platelet count of 250×10^6 platelets/mL with autologous PPP for use in aggregation studies. Potential donors were excluded if there was a history of a bleeding disorder or current anticoagulant use and donors were instructed to avoid NSAIDs for at least 7 days prior to donation. Approval for the human subjects involved in this research was sought and granted by the Committee for the Protection of Human Subjects, Dartmouth-Hitchcock Medical Center, where these studies were conducted in accordance with the Declaration of Helsinki.
(§2) Light transmission (i.e., optical) and lumi aggregometry were performed on up to four samples from the same individual simultaneously with a Chrono-Log Model 700 Whole Blood/Optical Lumi Aggregometer (Chrono-Log Corporation, Havertown, Pa.) using procedures provided by the manufacturer that are briefly summarized here.
(§3) Platelet aggregation was determined by measuring the change in light transmittance of stirred PRP over time after addition of various agonists. Prior to each experiment the aggregometer was standardized to reflect 100% and 0% light transmittance with PPP and PRP, respectively, from the donor whose platelets were used in each specific experiment. 500 μL PRP was added to cuvettes containing a magnetic stir bar and allowed to pre-warm to 37° C. in the aggregometer wells for 3 minutes prior to initiating aggregation reactions which were then conducted at 37° C. Aggregation reactions were initiated by direct addition of agonists and/or enzymes to warmed, stirred PRP, and were monitored for an increase in light transmittance for 10 minutes. The increase in light transmittance is directly proportional to the amount of aggregation and is amplified and digitized into a computer (HP Compaq, Hewlett-Packard, Palo Alto, Calif.) with the AGGRO/LINK8 for Windows software (Chrono-Log Corporation, Havertown, Pa.) to generate aggregation curves. […] The platelet aggregometry experiments for all concentrations of MRS 2395 (including the 0 μM point) were conducted with the plasma adjusted to a final concentration of 10% DMSO to solubilize the inhibitor.
In a subgroup of experiments, lumi aggregometry was used to assay the levels of extracellular ATP simultaneously with LTA. Lumi aggregometry measures ATP in the extracellular space over time using a sensitive luminescent assay employing firefly luciferin-luciferase (CHRONO-LUME™ reagent, Chrono-Log Corporation, Havertown, Pa.). ATP binds to luciferin-luciferase and generates light that is then amplified by a high-gain photomultiplier tube in the lumi aggregometer and is measured simultaneously with the optical change in light transmittance caused by platelet aggregation. In experiments in which lumi aggregometry was performed, 450 μL of PRP was transferred to cuvettes containing magnetic stir bars and allowed to pre-warm to 37° C. in the aggregometer wells for 3 minutes. […] Reactions were initiated by the addition of agonists and/or enzymes to warmed PRP and CHRONOLUME′ reagent and were monitored for light generation. […]

[2] = tested on: platelets in platelet rich plasma; assay: Light transmission aggregometry (LTA) in platelet rich plasma; assay type: cell-based, human; conditions: for inhibition of NPP4/Ap3A-promoted platelet aggregation (qualitative): increasing antagonist concentrations; for platelet aggregation response of enzyme in the presence of 80 μM Ap3A (qualitative): enzyme 50-200 nM
Description: as §1, §2, §3

[3] = Diadenosine polyphosphate cleavage (linked assay, HPLC, absorbance); assay type: biochemical; conditions: HPLC or absorbance / real time spectrophotometric assay
Description: NPP4 nucleotide substrates were identified by directly detecting the free phosphate (Pi) product using malachite green (ADP substrate) or by a linked hydrolysis assay with alkaline phosphatase combined with malachite green (lipid substrates and nucleotide substrates without terminal P1) to measure released Pi. 50 μM substrate P1 equivalents (e.g. 25 μM ADP) were treated with 50 nM NPP4 for 1 hr 37 min (lipids) or 3 hr 15 min (all other substrates). For substrates without terminal phosphates, 10 units of calf intestinal alkaline phosphatase (M0290S, 10,000 units/mL, New England Biolabs, Ipswich, Mass.) was added for a final reaction volume of 50 μL. […] The amount of phosphate released was measured by absorbance at 620 nm by a Biotek Synergy Mx plate reader (Winooski, Vt.) in 96-well plates (3679, Corning Inc., Corning, N.Y.) and compared against a phosphate standard curve.
The kinetics of the steady state Ap3A/Ap4A cleavage by NPP4 was measured from time courses of absorbance change at 259 nm using a UV spectrophotometer with a 0.1 cm optical path length cuvette or a stopped-flow device with a 0.2 cm optical path length cell. […] The substrate concentrations higher than 800 μM have absorption too high to be measured by a UV spectrophotometer and stopped-flow, and were therefore measured by HPLC. […]

[4] = Ap3A hydrolysis by NPP enzymes (linked malachite green assay, absorbance change at 259 nm, HPLC); assay type: biochemical; conditions: linked assay or steady state enzymatic studies
Description: NPP4 nucleotide substrates were identified by directly detecting the free phosphate (Pi) product using malachite green (ADP substrate) or by a linked hydrolysis assay with alkaline phosphatase combined with malachite green (lipid substrates and nucleotide substrates without terminal P1) to measure released Pi. 50 μM substrate P1 equivalents (e.g. 25 μM ADP) were treated with 50 nM NPP4 for 1 hr 37 min (lipids) or 3 hr 15 min (all other substrates). For substrates without terminal phosphates, 10 units of calf intestinal alkaline phosphatase (M0290S, 10,000 units/mL, New England Biolabs, Ipswich, Mass.) was added for a final reaction volume of 50 μL. 100 μL of malachite green (BIOMOL GREEN™, Enzo Life Sciences, Plymouth Meeting, Pa.) was added to quench the reactions. The amount of phosphate released was measured by absorbance at 620 nm by a Biotek Synergy Mx plate reader (Winooski, Vt.) in 96-well plates (3679, Corning Inc., Corning, N.Y.) and compared against a phosphate standard curve.
The kinetics of the steady state Ap3A/Ap4A cleavage by NPP4 was measured from time courses of absorbance change at 259 nm using a UV spectrophotometer with a 0.1 cm optical path length cuvette or a stopped-flow device with a 0.2 cm optical path length cell. The enzymology reactions in 50 mM Tris pH 8.0, 140 mM NaCl, 5 mM KCl, 1 mM MgCl2 and 1 mM CaCl2 were started by addition of 1 μM NPP4 to varying concentrations of Ap3A/Ap4A (up to 800 μM) solution (UV spectrophotometer) or by rapid mixing of NPP4 and Ap3A/Ap4A (stopped-flow). The substrate concentrations higher than 800 μM have absorption too high to be measured by a UV spectrophotometer and stopped-flow, and were therefore measured by HPLC. […] Therefore, the rate of a product production or enzyme turnover measured by the absorption change assay can be calculated by the rate of absorption change
[formula] according to the following formula;
[formula] where Δl is optical path length. The following absorption coefficients were used: Ap3A: 25.75 mM^−1 cm^−1. Ap4A: 25.4 mM^−1 cm^−1. AMP, ADP, and ATP: 15.4 mM^−1 cm^−1. ADP Receptor Inhibitor Assay for NPP4 Inhibition
The HPLC protocol used to measure Ap3A/Ap4A cleavage by NPP4 and for product identification is modified from that of Stocchi et al. (1985, Anal Biochem 146:118-24). The reactions containing varying concentrations of Ap3A/Ap4A in the same buffer as in the absorbance change assay were started by addition of 0.2-1 μM NPP4 and quenched at various time points by equal volume of 3 M formic acid, or 0.5 N KOH and re-acidified by glacial acetic acid to pH 6. The quenched reaction solution was diluted systematically and loaded a HPLC system (Waters, Milford Mass.) and substrates and products were monitored by UV absorbance at 254 or 259 nm. Substrates and products were separated on a C18, 5 μm 250×4.6 mm HPLC column (Higgins Analytical, Mountain View, Calif.), using 15 mM ammonium acetate pH 6.0 solution, with a 0% to 10% (or 20%) methanol gradient. The products and substrate were quantified according to the integration of their correspondent peaks and the formula:
[formula] where [substrate]0 is the initial substrate concentration. The extinction coefficients of Ap3A, Ap4A, AMP, ADP and ATP used in the formula were the same as those used in absorption change assay. If monitoring at 254 nm, substrate and product standards run on the same day as the reactions were used to convert integrated product/substrate peak areas to concentrations. […]

Molecule: diadenosine triphosphate [Ap3A]
platelet aggregation and luminescence, Ap3A alone (qualitative) ([1]; 40 μM Ap3A alone in PRP): primary wave of aggregation, followed by rapid disaggregation
platelet aggregation response to Ap3A in the presence of 100 nM NPP4 (qualitative) ([2]; 100 nM NPP4, dose response of Ap3A): induces both the primary and secondary waves of aggregation in a concentration-dependent fashion; also recorded: robust platelet aggregation
maximum aggregation ([2]; 40 μM Ap3A in the presence of 100 nM NPP4): 70%
maximum aggregation ([2]; Ap3A 80 μM or higher in the presence of 100 nM NPP4): greater than 80%
platelet aggregation response, agent alone (qualitative) ([2]; agent alone in PRP (Ap3A up to 160 μM; NPP4 100 nM)): triggers a primary wave of aggregation without degranulation, followed by rapid disaggregation; also recorded: only a primary wave of aggregation followed by rapid platelet disaggregation; also recorded: triggers a primary wave of aggregation, which is followed by rapid disaggregation

Molecule: CNc1nc(Cl)nc2c1ncn2CC(COC(=O)C(C)(C)C)COC(=O)C(C)(C)C [MRS 2395]
inhibition of NPP4/Ap3A-promoted platelet aggregation (qualitative) ([2]; 50 nM NPP4, 80 μM Ap3A): concentration-dependent inhibition of platelet aggregation; also recorded: dose-dependent inhibition of the platelet aggregation response
inhibition of NPP4/Ap3A-promoted platelet aggregation at 200 μM ([2]; 200 μM antagonist, 50 nM NPP4, 80 μM Ap3A, 10% DMSO): complete inhibition

Molecule: CNc1ncnc2c1ncn2[C@H]1C[C@H](OP(=O)(O)O)[C@@H](COP(=O)(O)O)O1 [MRS 2179]
inhibition of NPP4/Ap3A-promoted platelet aggregation (qualitative) ([2]; 50 nM NPP4, 80 μM Ap3A): concentration-dependent inhibition of platelet aggregation; also recorded: dose-dependent inhibition of the platelet aggregation response

Molecule: Nc1ncnc2c1ncn2[C@@H]1O[C@H](COP(=O)(O)OP(=O)(O)OP(=O)(O)OP(=O)(O)OC[C@H]2O[C@@H](n3cnc4c(N)ncnc43)[C@H](O)[C@@H]2O)[C@@H](O)[C@H]1O [Ap4A]
platelet aggregation and granule release, Ap4A with NPP4 (qualitative) ([1]; 40 μM Ap4A with 100 nM NPP4): no measurable platelet aggregation; also recorded: no platelet aggregation and no granule release
effect of Ap4A on Ap3A/NPP4-induced platelet aggregation ([2]; 80 μM Ap4A added to 100 nM NPP4 and 80 μM Ap3A): roughly half of the aggregation; also recorded: intermediate degree of platelet aggregation
platelet aggregation response to Ap4A (qualitative) ([2]; 80 μM Ap4A alone or in the presence of 100 nM NPP4): no apparent positive effect on aggregation; also recorded: does not trigger even a primary wave of aggregation

Ap3A cleavage / hydrolysis (qualitative) [4]: incapable of Ap3A hydrolysis
B1: NPP4-T70A: inactive mutant NPP4 extracellular domain, catalytic threonine 70 mutated to alanine (protein, UniProt Q9Y6X5 16-407, looked up, variant T70A)
extracellular domain: FRSDSSSSLPPKLLLVSFDGFRADYLKNYEFPHLQNFIKEGVLVEHVKNVFITKAFPNHYSIVTGLYEESHGIVANSMYDAVTKKHFSDSNDKDPFWWNEAVPIWVTNQLQENRSSAAAMWPGTDVPIHDTISSYFMNYNSSVSFEERLNNITMWLNNSNPPVTFATLYWEEPDASGHKYGPEDKENMSRVLKKIDDLIGDLVQRLKMLGLWENLNVIITSDHGMTQCSQDRLINLDSCIDHSYYTLIDLSPVAAILPKINRTEVYNKLKNCSPHMNVYLKEDIPNRFYYQHNDRIQPIILVADEGWTIVLNESSQKLGDHGYDNSLPSMHPFLAAHGPAFHKGYKHSTINIVDIYPMMCHILGLKPHPNNGTFGHTKCLLVDQWCINLPEA
modifications: extracellular domain
platelet aggregation and dense granule (ATP) release, enzyme with Ap3A (qualitative) ([1]; 100 nM enzyme with 40 μM Ap3A): A similar pattern is observed
diadenosine polyphosphate cleavage (qualitative) [3]: did not cleave diadenosine polyphosphates
platelet aggregation response of enzyme in the presence of 80 μM Ap3A (qualitative) [2]: fails to induce aggregation
platelet aggregation response of enzyme in the presence of 80 μM Ap3A (qualitative) ([2]; listed as T70A mutant of NPP4): no effect on platelet aggregation
